Structures are written as SMILES.

This test concerns GM3. The test is described as follows: GM3 Elisa assay. It is filed as cell-based. To be noted: Table 3 (IC 50 Values); B16-FO cells; read-out: IC50_uM_Mean. In short, it runs like this: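 Murine B16-FO melanoma cells attached 6 h on collagen, then exposed to compounds for 2 days at 37 °C. After formaldehyde fixation, cell-surface GM3 (NeuAc) was detected by anti-GM3 IgM and peroxidase anti-mouse IgM with Quantablu fluorescence (Ex 325/Em 420).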
Consider `COc1ccc(C(=O)CCCC(=O)N[C@H](CN2CCCC2)[C@H](O)c2ccc3c(c2)OC(F)(F)O3)cc1` [Compound 405], for which the IC50 lay in the range of 1000 to 3000 nM.
With `O=C(N[C@H](CO)[C@H](O)c1ccc2c(c1)OC(F)(F)O2)OCc1ccccc1` [Compound 406], the IC50 was 3000 to 10000 nM.
The same measure for `COc1ccc(OCCC(=O)N[C@H](CN2CCCC2)[C@H](O)c2ccc3c(c2)OC(F)(F)O3)cc1` [Compound 407]: 1000 to 3000 nM; for `COc1ccc(C(=O)CCCCC(=O)N[C@H](CN2CCCC2)[C@H](O)c2ccc3c(c2)OC(F)(F)O3)cc1` [Compound 408]: 1000 to 3000 nM; for `COc1ccc(C(=O)CCCCCC(=O)N[C@H](CN2CCCC2)[C@H](O)c2ccc3c(c2)OC(F)(F)O3)cc1` [Compound 409]: 100 to 1000 nM.
In the case of `O=C(Cc1ccc(OC(F)(F)F)cc1)N[C@H](CN1CCCC1)[C@H](O)c1ccc2c(c1)OC(F)(F)O2` [Compound 410] it was 3000 to 10000 nM; in that of `CCCCCCCC(=O)N[C@H](CN1CCCC1)[C@H](O)c1ccc2c(c1)OC(F)(F)O2` [Compound 411], 3000 to 10000 nM.
In the case of `CCCCOc1ccc([C@@H](O)[C@@H](CN2CCCC2)NC(=O)CCOc2ccc(OC)cc2)cc1` [Compound 412] it was at most 100 nM.
As for `CCCCCCOc1ccc([C@@H](O)[C@@H](CN2CCCC2)NC(=O)CCOc2ccc(OC)cc2)cc1` [Compound 413], the IC50 is at most 100 nM.
In the case of `COc1ccc(C(=O)CCCCC(=O)N[C@H](CN2CCCC2)[C@H](O)c2ccc(O)cc2)cc1` [Compound 414] it was 100 to 1000 nM; in that of `COCCOCCOc1ccc([C@@H](O)[C@@H](CN2CCCC2)NC(=O)CCCCC(=O)c2ccc(OC)cc2)cc1` [Compound 415], 100 to 1000 nM; in that of `COc1ccc(OCCOc2ccc([C@@H](O)C(CN3CCCC3)NC(=O)CCCCC(=O)c3ccc(OC)cc3)cc2)cc1` (stereo partly shown) [Compound 416], at most 100 nM.
In the case of `COCCOc1ccc([C@@H](O)[C@@H](CN2CCCC2)NC(=O)CCCCC(=O)c2ccc(OC)cc2)cc1` [Compound 417] it was at most 100 nM; in that of `COc1ccc(C(=O)CCCCC(=O)N[C@H](CN2CCCC2)[C@H](O)c2ccc(OCCOc3ccccc3)cc2)cc1` [Compound 418], at most 100 nM; in that of `COc1ccc(C(=O)CCCCC(=O)N[C@H](CN2CCCC2)[C@H](O)c2ccc(OCCC3CCCCC3)cc2)cc1` [Compound 419], at most 100 nM.
As for `COc1ccc(C(=O)CCCCC(=O)N[C@H](CN2CCCC2)[C@H](O)c2ccc(OCC3CCCCC3)cc2)cc1` [Compound 420], the IC50 is at most 100 nM.
Take `COc1ccc(C(=O)CCCCC(=O)N[C@H](CN2CCCC2)[C@H](O)c2ccc(OCC3CCC3)cc2)cc1` [Compound 421]: the IC50 is at most 100 nM.
Regarding `COc1ccc(C(=O)CCCCC(=O)N(Cc2ccccn2)[C@H](CN2CCCC2)[C@H](O)c2ccc(O)cc2)cc1` [Compound 422], the IC50 lay within 3000 to 10000 nM.
Turning to `COCCOc1ccc([C@@H](O)[C@@H](CN2CCCC2)N(CCOC)C(=O)CCCCC(=O)c2ccc(OC)cc2)cc1` [Compound 423], the IC50 lay in the range of 1000 to 3000 nM.
On to `COc1ccc(C(=O)CCCCC(=O)N(CC(=O)c2ccc(OC)cc2)[C@H](CN2CCCC2)[C@H](O)c2ccc(O)cc2)cc1` [Compound 424], for which the IC50 fell in the range of 3000 to 10000 nM.
The same measure for `COc1ccc(C(=O)CCCCC(=O)N(Cc2cccnc2)[C@H](CN2CCCC2)[C@H](O)c2ccc(O)cc2)cc1` [Compound 425]: 3000 to 10000 nM.
As to `COc1ccc(CN(C(=O)CCCCC(=O)c2ccc(OC)cc2)[C@H](CN2CCCC2)[C@H](O)c2ccc(O)cc2)cc1` [Compound 426], the IC50 was in the range of 3000 to 10000 nM.
The same measure for `COc1ccc(C(=O)CCCCC(=O)N(Cc2ccc(OC(F)F)cc2)[C@H](CN2CCCC2)[C@H](O)c2ccc(O)cc2)cc1` [Compound 427]: 3000 to 10000 nM; for `COc1ccc(C(=O)CCCCC(=O)N(CC2CCCC2)[C@H](CN2CCCC2)[C@H](O)c2ccc(O)cc2)cc1` [Compound 428]: 3000 to 10000 nM.
In the case of `COc1ccc(OCCCN(C(=O)CCCCC(=O)c2ccc(OC)cc2)[C@H](CN2CCCC2)[C@H](O)c2ccc(O)cc2)cc1` [Compound 429] it was 3000 to 10000 nM; in that of `COc1ccc(C(=O)CCCCC(=O)N[C@H](CN2CCCC2)[C@H](O)c2ccc(OCCCOc3ccc(C)cc3)cc2)cc1` [Compound 430], at most 100 nM; in that of `COc1ccc(C(=O)CCCCC(=O)N[C@H](CN2CCCC2)[C@H](O)c2ccc(OCCCOc3ccc(F)cc3)cc2)cc1` [Compound 431], at most 100 nM.
The same measure for `COc1ccc(C(=O)CCCCC(=O)N[C@H](CN2CCCC2)[C@H](O)c2ccc(OCCCC(F)(F)F)cc2)cc1` [Compound 432]: at most 100 nM; for `COc1ccc(C(=O)CCCCC(=O)N[C@H](CN2CCCC2)[C@H](O)c2ccc(OCCCOc3ccccc3)cc2)cc1` [Compound 433]: at most 100 nM; for `CCCCOc1ccc([C@@H](O)[C@@H](CN2CCCC2)NC(=O)CCCCC(=O)c2ccc(OC)cc2)cc1` [Compound 434]: at most 100 nM.
Take `COc1ccc(C(=O)CCCCC(=O)N[C@H](CN2CCCC2)[C@H](O)c2ccc(OCCCCF)cc2)cc1` [Compound 435]: the IC50 was at most 100 nM.
Take `COc1ccc(C(=O)CCCCC(=O)N[C@H](CN2CCCC2)[C@H](O)c2ccc(OCCCCC(C)C)cc2)cc1` [Compound 436]: the IC50 was at most 100 nM.
The same measure for `COc1ccc(C(=O)CCCCC(=O)N[C@H](CN2CCCC2)[C@H](O)c2ccc(OCCCOc3cccc(C)c3)cc2)cc1` [Compound 437]: at most 100 nM.
`COc1ccc(C(=O)CCCCC(=O)N[C@H](CN2CCCC2)[C@H](O)c2ccc(OCCC(C)C)cc2)cc1` [Compound 438]: the IC50 was at most 100 nM.
Regarding `COc1ccc(C(=O)CCCCC(=O)N[C@H](CN2CCCC2)[C@H](O)c2ccc(OC[C@H](C)CO)cc2)cc1` [Compound 439], the IC50 lay in the range of 100 to 1000 nM.
With `COc1ccc(CCOc2ccc([C@@H](O)[C@@H](CN3CCCC3)NC(=O)CCCCC(=O)c3ccc(OC)cc3)cc2)cc1` [Compound 440], the IC50 was at most 100 nM.
The same measure for `CC[C@H](C)COc1ccc([C@@H](O)[C@@H](CN2CCCC2)NC(=O)CCCCC(=O)c2ccc(OC)cc2)cc1` [Compound 441]: at most 100 nM; for `CCCCCCOc1ccc([C@@H](O)[C@@H](CN2CCCC2)NC(=O)CCCC(=O)c2ccc(OCCOC)cc2)cc1` [Compound 442]: at most 100 nM; for `CCCCCCOc1ccc([C@@H](O)[C@@H](CN2CCCC2)NC(=O)CCCCC(=O)c2ccc(OCCOC)cc2)cc1` [Compound 443]: at most 100 nM.
In the case of `COc1ccc(C(=O)CCCC(=O)N[C@H](CN2CC[C@@H](F)C2)[C@H](O)c2ccc(OC(C)C)cc2)cc1` [Compound 444] it was 100 to 1000 nM; in that of `COc1ccc(OCCCC(=O)N[C@H](CN2CC[C@@H](F)C2)[C@H](O)c2ccc(OC(C)C)cc2)cc1` [Compound 445], 100 to 1000 nM; in that of `CC(C)Oc1ccc([C@@H](O)[C@@H](CN2CC[C@@H](F)C2)NC(=O)Cc2ccc(-c3ccc(Cl)cc3)cc2)cc1` [Compound 446], at most 100 nM.
In the case of `COc1ccc(OCCC(=O)N[C@H](CN2CC[C@H](O)C2)[C@H](O)c2ccc(OC(C)C)cc2)cc1` [Compound 447] it was at most 100 nM.
For `Cc1ccc(OCCC(=O)N[C@H](CN2CC[C@@H](F)C2)[C@H](O)c2ccc(OC(C)C)cc2)cc1` [Compound 448], the IC50 was 100 to 1000 nM.
As for `COCCOc1ccc(C(=O)CCCC(=O)N[C@H](CN2CCCC2)[C@H](O)c2ccc3c(c2)OCCO3)cc1` [Compound 449], the IC50 was at most 100 nM.
With `COCCOc1ccc(C(=O)CCCCC(=O)N[C@H](CN2CCCC2)[C@H](O)c2ccc3c(c2)OCCO3)cc1` [Compound 450], the IC50 is at most 100 nM.
In the case of `COCCOc1ccc(C(=O)CCCC(=O)N[C@H](CN2CCCC2)[C@H](O)c2ccc(OC(C)C)cc2)cc1` [Compound 451], the IC50 was 100 to 1000 nM.
Take `COc1ccc(OCCC(=O)N[C@H](CN2CC[C@@H](F)C2)[C@H](O)c2ccc(OC(C)C)cc2)cc1` [Compound 452]: the IC50 was in the range of 100 to 1000 nM.
Regarding `COCCOc1ccc(C(=O)CCCCC(=O)N[C@H](CN2CCCC2)[C@H](O)c2ccc(OC(C)C)cc2)cc1` [Compound 453], the IC50 is at most 100 nM.
For `CCCCCCOc1ccc([C@@H](O)[C@@H](CN2CC[C@H](O)C2)NC(=O)CCOc2ccc(OC)cc2)cc1` [Compound 454], the IC50 was at most 100 nM.
Consider `COCCOc1ccc(C(=O)CCCCC(=O)N[C@H](CN2CC[C@H](O)C2)[C@H](O)c2ccc(OCCCCF)cc2)cc1` [Compound 455], for which the IC50 was at most 100 nM.
With `COCCCCCCCC(=O)N[C@H](CN1CC[C@H](O)C1)[C@H](O)c1ccc(OC(C)C)cc1` [Compound 456], the IC50 is at most 100 nM.
In the case of `COCCOc1ccc(C(=O)CCCC(=O)N[C@H](CN2CC[C@H](O)C2)[C@H](O)c2ccc(OCCCCF)cc2)cc1` [Compound 457] it was at most 100 nM.
In the case of `COc1ccc(C(=O)CCCCCC(=O)N[C@H](CNC2CCCCC2)[C@H](O)c2ccc3c(c2)OCCO3)cc1` [Compound 458] it was 3000 to 10000 nM.
Turning to `CCCCN(CCCC)C[C@@H](NC(=O)CCCCCC(=O)c1ccc(OC)cc1)C(O)c1ccc2c(c1)OCCO2` (stereo partly shown) [Compound 459], the IC50 lay in the range of 3000 to 10000 nM.
For the compound `COc1ccc(C(=O)CCCCCC(=O)N[C@H](CNC2CCC2)[C@H](O)c2ccc3c(c2)OCCO3)cc1` [Compound 460], the IC50 fell in the range of 1000 to 3000 nM.
In the case of `CCC(C)NC[C@@H](NC(=O)CCCCCC(=O)c1ccc(OC)cc1)C(O)c1ccc2c(c1)OCCO2` (stereo partly shown) [Compound 461] it was 100 to 1000 nM; in that of `CCCCNC[C@@H](NC(=O)CCCCCC(=O)c1ccc(OC)cc1)C(O)c1ccc2c(c1)OCCO2` (stereo partly shown) [Compound 462], 1000 to 3000 nM.
In the case of `COc1ccc(C(=O)CCCCCC(=O)N[C@H](CNC2CCCC2)[C@H](O)c2ccc3c(c2)OCCO3)cc1` [Compound 463] it was 100 to 1000 nM.
In the case of `COc1ccc(C(=O)CCCCCC(=O)N[C@H](CN(CC2CC2)CC2CC2)[C@H](O)c2ccc3c(c2)OCCO3)cc1` [Compound 464], the IC50 lay in the range of 3000 to 10000 nM.
On to `COc1ccc(C(=O)CCCCCC(=O)N[C@H](CNC(C)C)C(O)c2ccc3c(c2)OCCO3)cc1` (stereo partly shown) [Compound 465], for which the IC50 is 100 to 1000 nM.

The record behind these values is patent publication US8304447B2, “2-acylaminopropoanol-type glucosylceramide synthase inhibitors” (Genzyme Corporation, priority 2007, dated 2012).
